Laboratory results: PubChem BioAssay AID1919005 (Molecular Pharmacology Branch, DTP, NCI, 2023)

Tested on: 855422-203-R-J1-PDC complex spheroid growth
Experiment: Anticancer human tumor 855422-203-R-J1-PDC patient-derived bladder carcinoma cell line growth inhibition [AhR]
Conditions: for IC50: curve of first compound; for viability, T/C: stronger effect = lower value
Text: Multicellular complex tumor spheroid response to aryl hydrocarbon receptor antagonists in combination with a variety of drugs and investigational agents in selected tumor cell lines
The current study was undertaken to assess response to aryl hydrocarbon receptor antagonists in combination with standard-of-care drugs and investigational agents in solid tumor complex spheroid models. Complex spheroids include a stromal component modeled by human endothelial cells (HUVEC) and fibroblasts modeled by human mesenchymal stem cells (MSCs). The concentration ranges selected for each drug and investigational agent were based upon clinically achievable concentrations if the clinical Cmax of the agent was known.
Compounds. The drugs and investigational agents: BAY 2416964 (NSC825713), GNF351 (NSC835774), CH-223191 (NSC835775), CPI-455 (NSC825282), aza-TdCyd (NSC777586), decitabine (NSC127716), belinostat (NSC758774), entinostat (NSC756642), pevonedistat (NSC761192), tazemetostat (NSC777109), talazoparib (NSC765396), olaparib (NSC753686), selinexor (NSC780203), nedisertib (M3814, NSC802822), bortezomib (NSC756655), venetoclax (NSC766270), doxorubicin (NSC123127), elimusertib (BAY189344, NSC800525), ceralasertib (AZD6738, NSC777638), TAK-243 (NSC785004), alisertib (NSC759677), etoposide (NSC141540), topotecan (NSC609699), eribulin (NSC707389), gemcitabine (NSC613327), carboplatin (NSC241240), cisplatin (NSC119875), and SN-38 (NSC673596) were obtained from the National Cancer Institute (NCI) Developmental Therapeutics Program Chemical Repository (32). The FDA-approved anticancer drug set is available from the Developmental Therapeutics Program at https://dtp.cancer.gov/organization/dscb/obtaining/available plates.htm. […] The stock solutions were prepared in dimethyl sulfoxide (DMSO, Sigma-Aldrich, St. Louis, MO, cat. D2650), except for the platinum compounds which were prepared in saline (Quality Biological, Gaithersburg, MD, cat. 114-055-101), at 800-fold the tested concentration and stored at -70 degrees C prior to their use. All drugs and investigational agents were tested over a range starting from a high concentration at or near the clinical Cmax and decreasing in half-log increments. If the clinical Cmax for an agent had not been determined, the highest concentration tested was 10 microM (Table 1).
Cell Culture. All cells were maintained in an incubator at 37 degrees C and 5% CO2 with 95% humidity. The PDC lines were cultured according to standard operating procedures established by the NCI PDMR (https://pdmr.cancer.gov). Briefly, all PDCs were thawed and cultured in Matrigel-coated flasks prepared with a working solution of 1X Ham's F-12 nutrient mix, without supplementation (Invitrogen, Waltham, MA, cat. 11765054), 100 U/mL penicillin-streptomycin (Invitrogen, cat. 15140122), and 2.5% Matrigel (Corning Inc., Corning, NY, cat. 354248) for the first three passages. All PDCs were cultured in complete DMEM/F-12 media containing advanced DMEM/F-12 (Invitrogen, cat. 12634028), 4.9% defined fetal bovine serum, heat inactivated (HyClone Laboratories Inc., Logan, UT, cat. SH30070.03HI), 389 ng/mL hydrocortisone (Sigma-Aldrich, cat. H4001), 9.7 ng/mL human EGF recombinant protein (Invitrogen, cat. PHG0313), 23.4 microg/mL adenine (Sigma-Aldrich, cat. A2786), 97.3 U/mL penicillin-streptomycin (Invitrogen, cat. 15140122), 1.9 mM L-glutamine (Invitrogen, cat. 25030081), and 9.7 microM Y-27632 dihydrochloride (Tocris Bioscience, Bristol, United Kingdom, cat. 1254). The PDCs were cultured in complete DMEM/F12 media without 10 microM Y-27632 dihydrochloride for at least two passages prior to the screen. The established cell lines NCI-H1341 and […] were cultured in DMEM/F-12, HEPES (Invitrogen, cat. 11330032), 5% defined fetal bovine serum (HyClone Laboratories Inc., cat. SH30070.03), ITS premix universal culture supplement [insulin (5 microg/mL), transferrin (5 microg/mL), and selenious acid (5 ng/mL)] […]

[1] = second compound 0.1 µM, first compound 0.0316 µM
[2] = second compound 0.1 µM, first compound 0.1 µM
[3] = second compound 0.316 µM, first compound 0.0316 µM
[4] = second compound 0.316 µM, first compound 0.1 µM
[5] = second compound 1 µM, first compound 0.0316 µM
[6] = second compound 1 µM, first compound 0.1 µM
[7] = second compound 3.16 µM, first compound 0.0316 µM
[8] = second compound 3.16 µM, first compound 0.1 µM
[9] = second compound 10 µM, first compound 0.0316 µM
[10] = second compound 10 µM, first compound 0.1 µM
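Also: spheroids exposed to agents for seven days before readout.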
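For viability, T/C in this document: percent of DMSO vehicle control luminescence viability.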

With CC[C@@]1(O)C(=O)OCc2c1cc1n(c2=O)Cc2cc3c(CN(C)C)c(O)ccc3nc2-1 + Cc1ccccc1N=Nc1ccc(NC(=O)c2ccnn2C)c(C)c1 the IC50 (second compound 0.1 µM) was 86.1 nM, the IC50 (second compound 0.316 µM) was 65.1 nM and the IC50 (second compound 1 µM) was 62 nM. The IC50 (second compound 3.16 µM) was 31.9 nM, the IC50 (second compound 10 µM) was 30.5 nM and the viability, T/C (second compound 0.1 µM, first compound 0.000316 µM) was 104%. For the same compound, the viability, T/C (second compound 0.1 µM, first compound 0.001 µM) was 103%, the viability, T/C (second compound 0.1 µM, first compound 0.00316 µM) was 106% and the viability, T/C (second compound 0.1 µM, first compound 0.01 µM) was 97.9%. For the same compound, the viability, T/C [1] was 90.4%, the viability, T/C [2] was 43.7% and the viability, T/C (second compound 0.316 µM, first compound 0.000316 µM) was 96.7%. For the same compound, the viability, T/C (second compound 0.316 µM, first compound 0.001 µM) was 101%, the viability, T/C (second compound 0.316 µM, first compound 0.00316 µM) was 94.1% and the viability, T/C (second compound 0.316 µM, first compound 0.01 µM) was 97.2%. The viability, T/C [3] was 77.8%, the viability, T/C [4] was 33.5% and the viability, T/C (second compound 1 µM, first compound 0.000316 µM) was 110%. The viability, T/C (second compound 1 µM, first compound 0.001 µM) was 98.3%, the viability, T/C (second compound 1 µM, first compound 0.00316 µM) was 95.2% and the viability, T/C (second compound 1 µM, first compound 0.01 µM) was 98.7%. It also gave a viability, T/C [5] of 74.7%, a viability, T/C [6] of 31.9% and a viability, T/C (second compound 3.16 µM, first compound 0.000316 µM) of 97.4%. For the same compound, the viability, T/C (second compound 3.16 µM, first compound 0.001 µM) was 96.4%, the viability, T/C (second compound 3.16 µM, first compound 0.00316 µM) was 89.3% and the viability, T/C (second compound 3.16 µM, first compound 0.01 µM) was 87.1%. It also gave a viability, T/C [7] of 49.9%, a viability, T/C [8] of 30.8% and a viability, T/C (second compound 10 µM, first compound 0.000316 µM) of 88.1%. It also gave a viability, T/C (second compound 10 µM, first compound 0.001 µM) of 81.7%, a viability, T/C (second compound 10 µM, first compound 0.00316 µM) of 87.6% and a viability, T/C (second compound 10 µM, first compound 0.01 µM) of 86.9%. For the same compound, the viability, T/C [9] was 48.7% and the viability, T/C [10] was 29.7%.

CC(C)c1c(-c2ccccc2)nc2c(C#N)c[nH]n2c1=O + Cc1ccccc1N=Nc1ccc(NC(=O)c2ccnn2C)c(C)c1 gave an IC50 (second compound 0.1 µM) of over 10000 nM, an IC50 (second compound 0.316 µM) of over 10000 nM and an IC50 (second compound 1 µM) of over 10000 nM. It also gave an IC50 (second compound 3.16 µM) of over 10000 nM, an IC50 (second compound 10 µM) of over 10000 nM and a viability, T/C [1] of 98.4%. The viability, T/C [2] was 105%, the viability, T/C (second compound 0.1 µM, first compound 0.316 µM) was 94.5% and the viability, T/C (second compound 0.1 µM, first compound 1 µM) was 92.9%. It also gave a viability, T/C (second compound 0.1 µM, first compound 3.16 µM) of 89.5%, a viability, T/C (second compound 0.1 µM, first compound 10 µM) of 89% and a viability, T/C [3] of 106%. It also gave a viability, T/C [4] of 99%, a viability, T/C (second compound 0.316 µM, first compound 0.316 µM) of 96.9% and a viability, T/C (second compound 0.316 µM, first compound 1 µM) of 104%. For the same compound, the viability, T/C (second compound 0.316 µM, first compound 3.16 µM) was 91.2%, the viability, T/C (second compound 0.316 µM, first compound 10 µM) was 93% and the viability, T/C [5] was 95.8%. It also gave a viability, T/C [6] of 103%, a viability, T/C (second compound 1 µM, first compound 0.316 µM) of 96.5% and a viability, T/C (second compound 1 µM, first compound 1 µM) of 101%. The viability, T/C (second compound 1 µM, first compound 3.16 µM) was 91.4%, the viability, T/C (second compound 1 µM, first compound 10 µM) was 90.5% and the viability, T/C [7] was 94.4%. It also gave a viability, T/C [8] of 93.7%, a viability, T/C (second compound 3.16 µM, first compound 0.316 µM) of 89.7% and a viability, T/C (second compound 3.16 µM, first compound 1 µM) of 88.7%. For the same compound, the viability, T/C (second compound 3.16 µM, first compound 3.16 µM) was 89.5%, the viability, T/C (second compound 3.16 µM, first compound 10 µM) was 82.1% and the viability, T/C [9] was 81.8%. The viability, T/C [10] was 83.6%, the viability, T/C (second compound 10 µM, first compound 0.316 µM) was 76.9% and the viability, T/C (second compound 10 µM, first compound 1 µM) was 86%. For the same compound, the viability, T/C (second compound 10 µM, first compound 3.16 µM) was 76.5% and the viability, T/C (second compound 10 µM, first compound 10 µM) was 73.6%.
